In ChEMBL document CHEMBL1141988, “Bis(aminopyrrolidine)-derived ureas (APUs) as potent MCH1 receptor antagonists” (Bioorg Med Chem Lett, 2005) one finds Ki data, which are given here for nine compounds.

Molecules are shown by their SMILES.

Chain of Melanin-concentrating hormone receptor 1 (Q99705 whole entry): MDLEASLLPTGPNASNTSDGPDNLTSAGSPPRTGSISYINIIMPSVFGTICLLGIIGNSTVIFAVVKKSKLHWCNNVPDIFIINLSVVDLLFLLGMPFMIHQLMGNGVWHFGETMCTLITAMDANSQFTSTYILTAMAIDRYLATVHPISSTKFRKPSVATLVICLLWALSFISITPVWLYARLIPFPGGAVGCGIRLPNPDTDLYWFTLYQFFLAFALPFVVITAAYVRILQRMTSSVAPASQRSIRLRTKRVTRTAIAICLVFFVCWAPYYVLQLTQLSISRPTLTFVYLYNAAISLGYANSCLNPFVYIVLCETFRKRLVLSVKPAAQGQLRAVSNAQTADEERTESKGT

The assay has as its target Melanin-concentrating hormone receptor 1 (Homo sapiens, UniProt Q99705). Briefly: Displacement of [125I]MCH from human Melanin-concentrating hormone 1 (MCH1) receptor modified for optimal expression in HEK293 cells. Format: cell-based.
One may read the Ki as a measure of affinity in units of concentration, obtained from inhibition or displacement. Higher therefore signals a looser hold on the target. With `CN(C(=O)c1ccc(-c2ccc(C(F)(F)F)cc2)cc1)C1CCN(C(=O)N(C)C2CCN(CCS(=O)(=O)c3ccc(Cl)cc3)C2)C1` (centres undefined), the affinity corresponds to a Ki of 14 nM.
For `CN1CCC(N(C)C(=O)CCCN(C)C(=O)c2ccc(-c3ccccc3)cc2)C1` (centres undefined) the value was 142 nM.
`CN(C(=O)CCCC(=O)c1ccc(Cl)cc1)C1CCN(C(=O)N(C)C2CCN(CCCc3ccccc3)C2)C1` (centres undefined): the Ki was 48 nM.
`CN(C(=O)c1ccc(-c2ccc(C(F)(F)F)cc2)cc1)C1CCN(C(=O)N(C)C2CCN(CCCc3ccc(Cl)cc3)C2)C1` (centres undefined) displayed an inhibition constant (Ki) of 7.3 nM.
Compound `CN(C(=O)c1ccc(-c2ccc(C(F)(F)F)cc2)cc1)C1CCN(C(=O)N(C)C2CCN(CCS(=O)(=O)N3CCCC3)C2)C1` (centres undefined) yielded a Ki of 82 nM.
Consider `CN(C(=O)c1ccc(Oc2ccc(F)cc2)cc1)C1CCN(C(=O)N(C)C2CCN(CCCc3ccc(Cl)cc3)C2)C1` (centres undefined), for which the Ki was 5.3 nM.
Under `CN(C(=O)c1ccc(-c2ccc(C(F)(F)F)cc2)cc1)C1CCN(C(=O)N(C)C2CCN(CCO)C2)C1` (centres undefined) stands 96 nM.
Take `CN(C(=O)c1ccc(-c2ccc(C(F)(F)F)cc2)cc1)C1CCN(C(=O)N(C)C2CCN(CCOc3ccc(Cl)cc3)C2)C1` (centres undefined): the inhibitory constant (Ki) was found to be 18 nM.
`CN(C)CC1CCc2cc(NC(=O)c3ccc(-c4ccc(F)cc4)cc3)ccc2C1` (centres undefined) yielded a Ki of 5.5 nM.
